PMC10321483 (Chemical Science, 2023)
Several values for one entry are separate records, joined by “and”; a condition that tells them apart may be missing. Identical values can stand only once. Like-named read-outs stand apart in the source and are kept apart here.

Tests used:
BlaC = molecular target: T1, BlaC (Mycobacterium tuberculosis, UniProt P9WKD3); test: BlaC fluorogenic inhibition assay with FC5 (dose-response); assay type: biochemical; settings: Table S5 HTS hits, 30 minute inhibitor pre-incubation, two independent repeats
T1 construct: made in house; host or cells: E. coli
Method: Two types of controls were used. […] In control 2, the BlaC mixture was substituted with the assay buffer. This mixture was incubated for 30 minutes at room temperature without shaking. […] Data were analysed using ActivityBase (IDBS).

[1] = tested on: M. tuberculosis (strain H37Rv) growth in THP1 cells; test: Intracellular assay: Mtb H37Rv-Luc in THP-1 macrophages; assay type: cell-based, Mycobacterium tuberculosis; settings: 5 days, extrapolated from dose-response curve
[2] = tested on: M. tuberculosis (strain H37Rv); test: Extracellular assay: M. tuberculosis H37Rv in medium under replicating conditions; assay type: cell-based, Mycobacterium tuberculosis
LdtMt2 [3] = molecular target: T2, LdtMt2 (Mycobacterium tuberculosis, UniProt I6Y9J2); test: biochemical; assay type: biochemical; set-up: made in house; host or cells: E. coli
LdtMt2 [4] = molecular target: T2, LdtMt2; test: Rate constant of covalent target inactivation (kinact/KI), endpoint competition assay with probe 2; assay type: biochemical; set-up: made in house; host or cells: E. coli; settings: 100 nM LdtMt2, 10 µM probe 2, 3 h incubation; n=4
HepG2 cells = test: HepG2 cytotoxicity assay (CellTiter Glo); assay type: cell-based; settings: 48 h, ATP read-out
Method: Solutions of the test compounds (250 nL per well; 11 serial dilutions of 1/3 with starting concentration 100 μM) were dispensed in tissue-culture treated black clear-bottomed 384-well plates (Greiner, cat. no. 781091) with an Echo 555 instrument. 25 μL of HepG2 (ATCC HB-8065) cells (∼3000 cells per well) grown to confluency in Eagle's Minimal Essential Medium (MEM) supplemented with 10% (v/v) heat-inactivated FBS, 1% (v/v) non-essential amino acids (NEAA), and 1% (v/v) penicillin/streptomycin were added to each well. Plates were incubated at 37 °C with 20% O2 and 5% CO2 for 48 h. The plates were then equilibrated to room temperature. ATP levels, measured with CellTiter Glo kit (Promega), were used as cell viability read-out. 25 μL of CellTiter Glo substrate dissolved in the buffer was added to each well. Plates were incubated at room temperature for 10 min and read on ViewLux (PerkinElmer) […].

LdtMt2 [5] = molecular target: T2, LdtMt2; test: biochemical; assay type: binding; set-up: made in house; host or cells: E. coli
Method: LdtMt2 (5 μM) was incubated with the inhibitor (500 μM) in assay buffer (50 mM tris pH 7.5) for 30 minutes at room temperature in 96-well white PCR plates (25 μL final volume, Starlab). SYPRO Orange (final concentration 6×, according to manufacturer's definition, Invitrogen) was then added and the plate was sealed using a transparent plastic film (Polyolefin StarSeal, Starlab). Fluorescence was monitored (with λex = 492 nm and λem = 610 nm) using a CFX96 Touch Real-Time PCR Detection System (Bio-Rad), while the temperature was increased from 20 to 95 °C in increments of 0.2 °C. Melting temperatures (Tms) were determined using the CFX Maestro Software (Bio-Rad).

[6] = Intrinsic thiol reactivity (kchem), competition with probe 2 for L-glutathione; assay type: physicochemical; settings: for log(kchem) probe 2 (mean ± SD): Table S11 assay validation
LdtMt2 [7] = molecular target: T2, LdtMt2; settings: 1 μM LdtMt2, denaturing acidic conditions
Method: LdtMt2 (1 μM) in buffer (50 mM tris, pH 7.5) was incubated with an inhibitor (100 μM, 10 μM, or 2 μM, as indicated). Mass spectrometry was performed using a RapidFire200 integrated autosampler/solid phase extraction (SPE) system (Agilent Technologies) coupled to an API40000 triple quadrupole mass spectrometer (Applied Biosystems) operating in the positive ionisation mode. Samples were taken after the specified incubation periods, loaded onto a C4 cartridge (Agilent Technologies), and eluted with organic phase (85% (v/v) acetonitrile, 15% (v/v) water, 0.1% (v/v) formic acid). The cartridge was washed with both the organic phase and an aqueous phase (water, 0.1% (v/v) formic acid). Data were analysed using MassHunter Qualitative Analysis B.07.00 (Agilent Technologies). Spectra were deconvoluted using the maximum entropy algorithm in the same programme.

[8] = set-up: method as in earlier work; settings: Table S11; reported values; ref 6 (Sameshima et al., 2017); cited from earlier work
[9] = Table S5, L-glutathione 500 nM, probe 2 10 µM, 15 h

T1 sequence (P9WKD3 35-307): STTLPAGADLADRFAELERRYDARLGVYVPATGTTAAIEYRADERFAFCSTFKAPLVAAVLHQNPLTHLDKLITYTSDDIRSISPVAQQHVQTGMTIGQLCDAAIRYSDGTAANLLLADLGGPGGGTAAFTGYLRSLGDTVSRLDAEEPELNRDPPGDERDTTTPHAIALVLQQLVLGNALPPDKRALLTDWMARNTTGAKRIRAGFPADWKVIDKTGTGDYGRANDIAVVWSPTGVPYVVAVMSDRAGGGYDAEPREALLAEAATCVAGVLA
T2 sequence (I6Y9J2 56-408): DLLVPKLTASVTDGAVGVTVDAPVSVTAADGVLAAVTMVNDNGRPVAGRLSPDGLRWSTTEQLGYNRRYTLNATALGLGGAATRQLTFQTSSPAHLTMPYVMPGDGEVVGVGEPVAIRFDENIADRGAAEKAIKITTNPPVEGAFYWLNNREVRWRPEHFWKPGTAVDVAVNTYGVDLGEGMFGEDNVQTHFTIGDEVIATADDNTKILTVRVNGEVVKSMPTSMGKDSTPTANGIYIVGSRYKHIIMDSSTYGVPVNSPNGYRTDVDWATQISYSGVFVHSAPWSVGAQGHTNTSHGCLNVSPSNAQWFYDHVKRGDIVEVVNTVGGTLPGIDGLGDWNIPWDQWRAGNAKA

| SMILES | pIC50 BlaC (BlaC) | MIC50 intracellular [1] | MIC50 [2] [µM] | LE (ligand efficiency) (LdtMt2 [3]) | kinact/KI (LdtMt2 [4]) [M⁻¹ s⁻¹] | IC50 (HepG2 cells) [µM] | ΔTm: difference in melting point of LdtMt2 relative to unreacted LdtMt2 (43.8 °C) (LdtMt2 [5]) | Tm: melting point of LdtMt2 after pre-incubation with the compound (LdtMt2 [5]; pH 7.5, in °C (unit assumed)) | other results |
| --- | --- | --- | --- | --- | --- | --- | --- | --- | --- |
| O=C(NC(Cc1ccccc1)C(=O)CCl)c1cc(Cc2ccccc2)on1 (stereo not drawn) [Compound 1] | < 4.0 | 35.5 ± 4.9 µM and < 50 µM | > 100 | 0.41 | 1152 ± 87 | – | – | – | – |
| O=C1C=CC(=O)N1c1ccc(Oc2ccccc2)c(Cl)c1 [Compound 5] | – | 25.7 ± 0.30 µM and < 50 µM | > 100 | 0.53 | 116 ± 6.2 | 2.51 ± 0.12 | -0.2 °C | – | Tm: melting point of LdtMt2 after pre-incubation with the compound (LdtMt2 [5]; pH 7.5): 43.6 ± 0.16 °C |
| O=C(OCN1C(=O)C=CC1=O)c1ccccc1 [Compound 7] | – | 39.8 ± 0.0 µM and < 50 µM | > 100 | 0.66 | 156 ± 5.1 | 3.9 ± 0.88 | – | – | Tm: melting point of LdtMt2 after pre-incubation with the compound (LdtMt2 [5]; pH 7.5): 43.1 ± 0.09 °C |
| O=C1CN(C(=O)C=Cc2ccco2)c2ccccc2N1 [Compound 12] | < 4.0 | – | – | 0.56 | – | – | +0.3 | 44.1 ± 0.09 | kchem (apparent intrinsic thiol reactivity) [6, 9]: 0.55 ± 0.11 M⁻¹ s⁻¹ |
| O=c1c2cc(Cl)c(Cl)cc2sn1CCO [Compound 15] | – | – | – | – | – | – | – | – | IC50 (BlaC; pIC50 BlaC): 0.427 µM; MIC50 ([2]; Mycobacterium tuberculosis): > 100 µM; IC50 (HepG2 cells; Homo sapiens, HepG2): 9.55 ± 0.22 µM; LE (ligand efficiency) (LdtMt2 [3]; Table S5, for LdtMt2): 0.74; IC50 (LdtMt2 [3]; Table S5 HTS hits, 30 minute inhibitor pre-incubation, two independent repeats, read-out: pIC50 LdtMt2 (converted)): 0.0102 µM; Tm: melting point of LdtMt2 after pre-incubation with the compound (LdtMt2 [5]; 5 µM LdtMt2, 500 µM inhibitor, SYPRO Orange, 50 mM Tris pH 7.5): 43.5 ± 0.09 °C; ΔTm at 500 µM (LdtMt2 [5]; read-out: ΔTm: difference in melting point of LdtMt2 relative to unreacted LdtMt2 (43.8 °C)): -0.3 °C |
| COc1ccc(CN2C(=O)C(=O)c3cc(Br)cc(C)c32)cc1OC [Compound 17] | < 4.0 | – | > 100 | 0.47 | – | 53.5 ± 6.7 | +3.0 | 46.8 ± 0.00 | kchem (apparent intrinsic thiol reactivity) [6, 9]: < 0.08 M⁻¹ s⁻¹; pIC50, 0 min (LdtMt2 [3]): 6.48 ± 0.14; pIC50, 10 min (LdtMt2 [3]): 6.33 ± 0.14; pIC50, 60 min (LdtMt2 [3]): 6.28 ± 0.45; pIC50, 120 min (LdtMt2 [3]): 6.45 ± 0.26 |
| O=C1C(=O)N(Cc2cccc3ccccc23)c2ccc(Br)cc21 [Compound 18] | < 4.0 | 35.5 ± 5.4 µM and < 50 µM | > 100 | 0.49 | – | 42.3 ± 3.4 | +2.4 | 46.2 ± 0.00 | kchem (apparent intrinsic thiol reactivity) [6, 9]: < 0.08 M⁻¹ s⁻¹; covalent modification of LdtMt2 (adduct observed by SPE-MS) (LdtMt2 [7]): not observed to modify LdtMt2; pIC50, 0 min (LdtMt2 [3]): 6.39 ± 0.07; pIC50, 10 min (LdtMt2 [3]): 6.24 ± 0.23; pIC50, 60 min (LdtMt2 [3]): 6.49 ± 0.35; pIC50, 120 min (LdtMt2 [3]): 6.56 ± 0.35 |
| NC(=O)OCC1=C(C(=O)O)N2C(=O)C(NC(=O)C(=CS(=O)(=O)CCc3ccc(O)c(O)c3)c3csc(N)n3)C2SC1 (stereo not drawn) [Compound 20] | 7.72 | 38.9 ± 1.8 µM and < 50 µM | > 100 | 0.28 | – | > 100 | -1.1 | 42.7 ± 0.25 | – |
| N#Cn1c(-c2cc(F)cc(C(F)(F)F)c2)nc2ccccc21 [Compound 23] | < 4.0 | – | > 100 | 0.51 | 265 | 28.8 | -1.3 | 42.5 ± 0.09 | – |
| Cc1nc(-c2ccc(-c3nc4ccccc4n3C#N)cc2)cs1 [Compound 30] | – | – | > 100 | 0.49 | 236 ± 9.5 | 3.98 ± 0.1 | -1.6 | 42.2 ± 0.00 | – |
| N#Cn1c(-c2ccncc2)nc2ccc(C(=O)c3ccccc3)cc21 [Compound 36] | < 4.0 | 29.5 ± 0.0 µM and < 50 µM | > 100 | 0.45 | 51.0 ± 3.4 | 32.7 ± 0.38 | -3.0 | 40.8 ± 0.59 | lowered the melting temperature of LdtMt2 by (LdtMt2 [5]): 3.0 °C |
| CC(N)C(=O)NC1CCN(c2ccc(N3CCCC3)cc2C#N)C1 (stereo not drawn) [Compound 39] | < 4.0 | 28.8 ± 0.0 µM and < 50 µM | > 100 | 0.47 | – | > 100 | -0.7 | 43.1 ± 0.10 | – |
| N#Cn1cnc2ccccc21 [Compound 40] | – | – | – | – | – | – | – | – | kchem (apparent intrinsic thiol reactivity) ([6]; Table S10 known cyanating compounds, unit printed in b38 only): 0.90 ± 0.05 M⁻¹ s⁻¹ and 0.90 M⁻¹ s⁻¹; pIC50 LdtMt2 (LdtMt2 [3]): 6.31 ± 0.03 |
| N#C[s+]1c2ccccc2c2ccccc21.O=S(=O)([O-])C(F)(F)F [Compound 45, reference compound] | – | – | – | – | – | – | – | – | covalent modification of LdtMt2 (adduct observed by SPE-MS) (LdtMt2 [7]): did not modify LdtMt2 |
| CCOc1ccc(C(=O)C=CC(=O)O)cc1OCC [i] | – | – | – | – | – | – | – | – | log(kchem) probe 2 (mean ± SD) [6]: 0.65 ± 0.06; log(kchem) o-maleimide BODIPY (mean ± SD) [8]: 0.86 ± 0.09 |
| Cc1ccc(C(=O)C=CC(=O)O)cc1C [ii] | – | – | – | – | – | – | – | – | log(kchem) probe 2 (mean ± SD) [6]: 0.76 ± 0.03; log(kchem) o-maleimide BODIPY (mean ± SD) [8]: 1.07 ± 0.09 |
| O=C(O)C=CC(=O)c1ccc(Br)cc1 [iii] | – | – | – | – | – | – | – | – | log(kchem) probe 2 (mean ± SD) [6]: 0.93 ± 0.02; log(kchem) o-maleimide BODIPY (mean ± SD) [8]: 1.34 ± 0.10 |
